Here are results for eleven compounds from ChEMBL document CHEMBL1201862, “PubChem BioAssay data set” (2004).

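In this assay, cells in 96-well plates receive the compound at five concentrations for 48 hours. Endpoints are linearly interpolated between the surrounding concentrations. At the GI50, growth is halved.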 Active and inactive are the calls of the source. Cut-off read from the data, not from the text of the source: active = GI50 up to about 1.1 µM and inactive = higher.

Holding throughout (test): NCI anticancer screen, dose series, 48 h
Test [1] has as its system ACHN.
In test [2] the test system is DU-145.
Test [3] concerns HCC 2998.
Test [4] concerns HOP-62.
Test [5] relates to KM12.
For test [6], the system named is MDA-MB-231.
Test [7] deals with MDA-N.
The test system of test [8] is Malme-3M.
Test [9] has as its system NCI-H460.
The subject of test [10] is OVCAR-4.
Test [11] concerns RXF 393.
For test [12], the system named is SK-MEL-28.
The test system of test [13] is SK-OV-3.
For test [14], the system named is SR.
Test [15] relates to TK-10.
Test [16] deals with UO-31.
Test [17] deals with COLO 205.
The test system of test [18] is HOP-92.
Test [19] has as its system SF-539.
The subject of test [20] is SK-MEL-5.

With `Cl/C(=N\c1cccc2ccccc12)N(c1ccccc1)c1ccccc1`, the GI50 was 66.7 µM (inactive) in test [1]; > 100 µM (inactive) in test [2]; 19.7 µM (inactive) in test [3]; > 100 µM (inactive) in [4]; 75 µM (inactive) in test [5]; > 100 µM (inactive) in test [6]. Further, the GI50 in test [7] is 52 µM (inactive); in test [8], 39 µM (inactive); in test [9], 28.4 µM (inactive); in [10], > 100 µM (inactive); in test [11] it was > 100 µM (inactive); in [12] it was > 100 µM (inactive). Further, the GI50 in [13] is > 100 µM (inactive); in [14], 25.4 µM (inactive); in test [15], 72.3 µM (inactive); in test [16], > 100 µM (inactive).

Consider `CC(=O)c1c(C)n(C)c2c1nnc1ccccc12`, for which the GI50 in test [1] is 34.4 µM (inactive); in test [17], 30.9 µM (inactive); in [2] it was 80.5 µM (inactive); in [3] it was 85.5 µM (inactive); in test [4] it was 55.2 µM (inactive); in test [18] it was 43.9 µM (inactive). Also, the GI50 is 47.6 µM (inactive) in test [5]; 59 µM (inactive) in [6]; 67.9 µM (inactive) in [7]; 39.5 µM (inactive) in test [8]; 25.7 µM (inactive) in test [9]; > 100 µM (inactive) in test [10]. In addition, the GI50 in test [11] was 40.2 µM (inactive); in test [19], 34.8 µM (inactive); in [12], > 100 µM (inactive); in test [20] it was 32 µM (inactive); in test [13] it was 32.8 µM (inactive); in test [15], 29.4 µM (inactive). For the same compound, in test [16], the GI50 was 3.15 µM (inactive).

For the compound `CC1=CC2=C(C(N)=O)C(=O)OC2(C)C(c2ccccc2)C1` (stereo unspecified), the GI50 in [1], in test [2], in test [4], in test [18], in test [5] and in test [6] was > 100 µM (inactive) throughout. The GI50 in [7], in test [8], in test [9], in [10], in [19] and in [12] was > 100 µM (inactive) in each case. Moreover, the GI50 in [13], in test [14], in test [15] and in test [16] was > 100 µM (inactive) throughout.

In the case of `C/C=C(/CBr)CCC(Br)C(C)(C)Cl.C/C=C(\CBr)CCC(Br)C(C)(C)Cl` (stereo unspecified), the GI50 in test [1], in test [17], in [2], in test [3], in test [4] and in test [18] was > 10 µM (inactive) in each case. The GI50 in [5], in test [6], in test [7], in test [8], in [9] and in test [10] was > 10 µM (inactive) in each case. Besides, the GI50 in [11], in test [19], in test [12], in test [20], in test [13] and in test [15] was > 10 µM (inactive) in each case. Also, in test [16], the GI50 was > 10 µM (inactive).

Consider `O/N=C1/Nc2ccccc2C(=S)N2CSCC12` (stereo unspecified), for which the GI50 is > 100 µM (inactive) in [1]; 41.9 µM (inactive) in test [17]; > 100 µM (inactive) in [2]; 32.4 µM (inactive) in [3]; > 100 µM (inactive) in test [4]; 33 µM (inactive) in test [5]. The GI50 was > 100 µM (inactive) in test [6]; 18.3 µM (inactive) in [7]; > 100 µM (inactive) in [8]; 17.3 µM (inactive) in test [9]; > 100 µM (inactive) in test [10]; > 100 µM (inactive) in test [11]. The GI50 in test [12] is > 100 µM (inactive); in [20], 23.4 µM (inactive); in test [13], > 100 µM (inactive); in test [14], 22.9 µM (inactive); in test [15] it was > 100 µM (inactive); in [16] it was > 100 µM (inactive).

For `O=C1CC(c2ccc([N+](=O)[O-])cc2)C2(C(=O)NC(=S)NC2=O)C(c2ccc([N+](=O)[O-])cc2)C1` (stereo unspecified), the GI50 in test [1] was 20.1 µM (inactive); in [17] it was 33.5 µM (inactive); in [2], 31.8 µM (inactive); in test [3], 24.4 µM (inactive); in test [4], 23.8 µM (inactive); in test [18], 26.9 µM (inactive). Also, the GI50 was 18.5 µM (inactive) in [5]; 13.6 µM (inactive) in [6]; 31.4 µM (inactive) in [7]; 12.2 µM (inactive) in [8]; 21.8 µM (inactive) in [9]; 45.7 µM (inactive) in test [10]. For the same compound, the GI50 was 33.7 µM (inactive) in [19]; 40.7 µM (inactive) in test [12]; 31.3 µM (inactive) in test [20]; 35.9 µM (inactive) in test [13]; 52.2 µM (inactive) in test [14]; 16.3 µM (inactive) in test [15]. Besides, the GI50 in [16] was 25.4 µM (inactive).

Consider `O=C(Cc1ccccc1)N/N=C/c1ccccc1O`, for which the GI50 in test [1] was 5.15 µM (inactive); in [17] it was 4.09 µM (inactive); in test [2], 23.3 µM (inactive); in test [3] it was 11.2 µM (inactive); in [18] it was 9.14 µM (inactive); in test [5], 32.7 µM (inactive). Also, the GI50 in test [6] was > 100 µM (inactive); in [7], 21.8 µM (inactive); in test [8], 12.6 µM (inactive); in test [9], 5.6 µM (inactive); in test [10], 15.7 µM (inactive); in [19], 24.8 µM (inactive). The GI50 is 40.4 µM (inactive) in test [12]; 12 µM (inactive) in test [20]; 15.9 µM (inactive) in [13]; 5.52 µM (inactive) in [14]; 22.4 µM (inactive) in test [15]; 6.52 µM (inactive) in test [16].

Consider `CC1(C)S[C@@H]2[C@H](NC(=O)/C=C/c3ccccc3)C(=O)N2[C@H]1C(=O)O`, for which the GI50 in [1], in test [17], in [2], in test [3], in test [4] and in [18] was > 100 µM (inactive) in each case. For the same compound, the GI50 in [5], in test [6], in [7], in test [8], in [9] and in test [10] was > 100 µM (inactive) in each case. Also, the GI50 in test [19] was > 100 µM (inactive); in [12] it was 69.5 µM (inactive); in test [20], > 100 µM (inactive); in test [13], > 100 µM (inactive); in [14] it was > 100 µM (inactive); in test [15], > 100 µM (inactive). Moreover, the GI50 in test [16] is > 100 µM (inactive).

Consider `CC1CCC2C(C(=O)O[C@H]3C4C=CO[C@@H](OC5OC(CO)C(O)C(O)C5O)C4[C@@]4(CO)O[C@@H]34)=CO[C@@H](OC3OC(CO)C(O)C(O)C3O)C12` (stereo partly specified), for which the GI50 in test [1], in test [17], in test [2], in test [3], in [4] and in test [18] was > 10 µM (inactive) throughout. The GI50 in test [5], in test [6], in test [7], in test [8], in test [9] and in test [10] was > 10 µM (inactive) in each case. Also, the GI50 in test [11], in test [19], in test [12], in test [20], in test [13] and in test [15] was > 10 µM (inactive) each time. Further, the GI50 in test [16] was > 10 µM (inactive).

For `COc1cc2c3c(c4cc(OC)c(OC)cc4c2cc1OC)[C@H](O)[C@@H]1CCCN1C3`, the GI50 in [1] is < 0.0157 µM (active); in test [17], < 0.0179 µM (active); in test [2] it was < 0.0243 µM (active); in [3], < 0.0243 µM (active); in [4] it was < 0.0198 µM (active); in [18], < 0.0478 µM (active). Also, the GI50 was < 0.0232 µM (active) in test [5]; < 0.0342 µM (active) in test [6]; < 0.0363 µM (active) in test [7]; < 0.0384 µM (active) in test [8]; < 0.0226 µM (active) in [9]; < 0.0234 µM (active) in [10]. For the same compound, the GI50 in test [19] was < 0.0365 µM (active); in test [12], < 0.0284 µM (active); in test [20], < 0.0259 µM (active); in test [13] it was < 0.0237 µM (active); in test [14], 0.029 µM (active); in test [15], 0.0562 µM (active). In addition, in test [16], the GI50 was < 0.0337 µM (active).

Turning to `CC1(C)C(=O)N=C(N)N1C(=O)OCc1ccccc1`, the GI50 in test [1], in [17], in [2], in [3], in test [4] and in test [18] was > 100 µM (inactive) each time. The GI50 in test [5], in [6], in [7], in [8], in test [9] and in test [10] was > 100 µM (inactive) throughout. The GI50 in test [19], in test [12], in test [20], in [13], in test [14] and in test [15] was > 100 µM (inactive) throughout. The GI50 in test [16] was 67.6 µM (inactive).
